Test results: patent US20250000766A1, “ANTIMICROBIAL ESTERS FOR SKIN AND SCALP CARE” (SYMRISE AG, priority 2021, published 2025)
Like-named read-outs stand apart in the source and are kept apart here.

What was measured:
M. sympodialis = test system: M. sympodialis; parameters: unit not given here; settings: cited from earlier work
M. globosa = test system: M. globosa; parameters: unit not given here; settings: cited from earlier work
M. restricta = test system: M. restricta; parameters: unit not given here; settings: M. restricta strain 7877; cited from earlier work
M. sympodialis DSM 6171 = test: Agar dilution test, growth inhibition (MIC) of M. sympodialis DSM 6171; type: cell-based; settings: MLN agar, 7 days at 30° C.
Procedure: (§1) The fatty acid esters and their mixtures were tested for growth inhibition against Malassezia. The following reference strains were included:
(§2) Tests were performed in 6 well plates on solid media using agar dilution tests. Stock solutions of test substances were prepared in DMSO. Lower test concentrations were obtained by diluting stock solutions in DMSO.
(§3) Briefly, microorganisms are inoculated on modified Leeming & Notman (MLN) agar. A well grown plate is harvested in a 0.8% NaCl solution. Dilutions of test substances are prepared according to the concentration range required for the test. 5 μl of the test sample and controls are complemented with 500 μl MLN agar and mixed by shaking. 200 μl of liquid MLN per well are added onto the solidified agar. Afterwards, 20 μl of inoculum solution is added, with except of the blanks, and samples are incubated for 7 days at 30° C. Typical concentrations to be tested are 5000 ppm, 2500 ppm, and 1:1 dilutions from 1000 ppm (500 ppm, 250 ppm, etc).
(§4) Appropriate controls are included to show the growth of organisms without antifungal substances and antifungal activity of reference substances.

M. globosa CBS 7966 = test: Agar dilution test, growth inhibition (MIC) of M. globosa CBS 7966; type: cell-based; settings: MLN agar, 7 days at 30° C.
Procedure: as §1, §2, §3, §4

M. restricta CBS 7877 = test: Agar dilution test, growth inhibition (MIC) of M. restricta CBS 7877; type: cell-based; settings: MLN agar, 7 days at 30° C.
Procedure: as §1, §2, §3, §4

Compound	MIC (M. sympodialis; M. sympodialis strain 6171)	MIC (M. sympodialis; M. sympodialis strain 7222)	MIC (M. sympodialis; M. sympodialis strain 7979)	MIC (M. sympodialis; M. sympodialis strain 42132)	MIC (M. globosa; M. globosa strain 7705)	MIC (M. globosa; M. globosa strain 7966)	MIC (M. globosa; M. globosa strain PM1)	MIC (M. restricta)	Minimal inhibitory concentration (MIC) (M. sympodialis DSM 6171)	Minimal inhibitory concentration (MIC) (M. globosa CBS 7966)	Minimal inhibitory concentration (MIC) (M. restricta CBS 7877)
CCCCCCCC(=O)OCCCO [3-Hydroxypropyl caprylate, 3-hydroxypropyl caprylate]	2,000	1,000	2,000	1,000	1,000	1,000	500	1,000			
CCCCCCCC(=O)OCC [Ethyl caprylate, ethyl caprylate]	1,000	1,000	1,000	1,000		1,000	1,000	4,000			
CCCCCCCC(=O)OCC(O)CO (stereo not drawn) [Glyceryl monocaprylate, glyceryl monocaprylate]	2,000	1,000	1,000	1,000	1,000	1,000		300			
polyglyceryl-3 caprylate [Polyglyceryl-3-caprylate]									2.500 ppm	1.000 ppm	
sorbitan caprylate									5.000 ppm	1.000 ppm	2.500 ppm
xylityl sesquicaprylate									2.500 ppm	1.000 ppm	2.500 ppm
